Experimental findings from article PMC10004187 (Molecules, 2023) are described below.

For series [1], the target named is T1, butyrylcholinesterase (BuChE) (Homo sapiens, UniProt P06276). The experiment in a line: biochemical.
Series [2] has as its system Vero cell lines (normal kidney epithelial cells). The experiment in a line: SRB cytotoxicity assay against Vero cell line. The note with it: initial screening. Type of series: cell-based. The procedure: To investigate the cytotoxicity of potent compounds (8a, 8c, 8g, and 9i), an SRB assay was performed against Vero cell lines (normal kidney epithelial cells). The total protein generated when cells were treated with putative anticancer drugs was assessed using a very precise […] technique. […] It can readily connect with cells that have been fixed with trichloroacetic acid (TCA). A bright color is produced by the SRB dye when it binds solely to intracellular proteins, and the color is proportional to the quantity of protein present in the cell.
(In general: In SRB staining, fixed cells bind dye roughly in proportion to their protein.)

Series [3] concerns the target T1, butyrylcholinesterase (BuChE). The conditions noted are these: for Butyrylcholinesterase (BuChE) Inhibition %Inhibition: given for compounds with <50% inhibition, test concentration not given.

T1 sequence (P06276 29-602): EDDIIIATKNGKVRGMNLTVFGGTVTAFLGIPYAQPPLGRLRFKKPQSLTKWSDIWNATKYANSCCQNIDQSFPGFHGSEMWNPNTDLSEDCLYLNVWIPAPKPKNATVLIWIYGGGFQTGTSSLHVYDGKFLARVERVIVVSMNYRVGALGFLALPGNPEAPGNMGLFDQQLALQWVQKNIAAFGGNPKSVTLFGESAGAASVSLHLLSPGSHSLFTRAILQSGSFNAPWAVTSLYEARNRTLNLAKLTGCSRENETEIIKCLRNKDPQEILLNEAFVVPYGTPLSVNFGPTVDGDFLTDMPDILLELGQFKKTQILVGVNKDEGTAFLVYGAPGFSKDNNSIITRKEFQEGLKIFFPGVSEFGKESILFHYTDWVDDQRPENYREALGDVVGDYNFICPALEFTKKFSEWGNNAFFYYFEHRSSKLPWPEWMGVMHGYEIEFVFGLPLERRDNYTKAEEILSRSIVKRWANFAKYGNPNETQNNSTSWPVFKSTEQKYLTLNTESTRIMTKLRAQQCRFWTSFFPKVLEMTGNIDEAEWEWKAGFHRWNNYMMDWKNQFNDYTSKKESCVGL

What is called IC50 is the concentration at which inhibition is half-maximal. A low value points to greater potency in that assay. In series [1], `Cc1ccc2nc(N3CCCCC3)c(C=NNC(=O)c3ccccc3)cc2c1` [Compound 8a, N′-((6-methyl-2-(piperidin-1-yl)quinolin-3-yl)methylene)benzohydrazide] had a concentration for half-maximal inhibition (IC50) of 4.64 ± 0.43 µM. In series [2], the “inhibition of Vero cells (toxicity towards normal kidney cells)” value (“inhibition of Vero cells” for short) is “less than 22%”.

`Cc1ccc2nc(N3CCCCC3)c(C=NNC(=O)c3cccc([N+](=O)[O-])c3)cc2c1` [Compound 8b, N′-((6-methyl-2-(piperidin-1-yl)quinolin-3-yl)methylene)-3-nitrobenzohydrazide]: the IC50 in series [1] worked out at 4.71 ± 0.45 µM. For the same compound, the “BuChE inhibition ability, fold reduction relative to 8g” value in series [3] (Cl exchanged for NO2, vs lead 8g) worked out at 3 folds. In turn, `Cc1ccc2nc(N3CCCCC3)c(C=NNC(=O)c3ccc([N+](=O)[O-])cc3)cc2c1` [Compound 8c, N′-((6-methyl-2-(piperidin-1-yl)quinolin-3-yl)methylene)-4-nitrobenzohydrazide] yielded an IC50 in series [1] of 1.74 ± 0.03 µM. Besides, in series [2], the “inhibition of Vero cells” value is on record as “less than 22%”. As for `Cc1ccc2nc(N3CCCCC3)c(C=NNC(=O)c3ccccc3N)cc2c1` [Compound 8d, 2-Amino-N′-((6-methyl-2-(piperidin-1-yl)quinolin-3-yl)methylene)benzohydrazide], the “Butyrylcholinesterase (BuChE) Inhibition %Inhibition” value in series [3] is 21%.

In the case of `Cc1ccc2nc(N3CCCCC3)c(C=NNC(=O)c3ccc(N)cc3)cc2c1` [Compound 8e, 4-Amino-N′-((6-methyl-2-(piperidin-1-yl)quinolin-3-yl)methylene)benzohydrazide], the “Butyrylcholinesterase (BuChE) Inhibition %Inhibition” value in series [3] is 23%.

Consider `Cc1ccc2nc(N3CCCCC3)c(C=NNC(=O)c3ccccc3Cl)cc2c1` [Compound 8f, 2-Chloro-N′-((6-methyl-2-(piperidin-1-yl)quinolin-3-yl)methylene)benzohydrazide], for which the “Butyrylcholinesterase (BuChE) Inhibition %Inhibition” value in series [3] stood at 15%. Turning to `Cc1ccc2nc(N3CCCCC3)c(C=NNC(=O)c3cccc(Cl)c3)cc2c1` [Compound 8g, 3-Chloro-N′-((6-methyl-2-(piperidin-1-yl)quinolin-3-yl)methylene)benzohydrazide], the IC50 in series [1] came to 1.31 ± 0.05 µM. Also, the “inhibition of Vero cells” value in series [2] is “less than 22%”. In the case of `Cc1ccc2nc(N3CCCCC3)c(C=NNC(=O)c3ccc(Cl)cc3)cc2c1` [Compound 8h, 4-Chloro-N′-((6-methyl-2-(piperidin-1-yl)quinolin-3-yl)methylene)benzohydrazide], the “Butyrylcholinesterase (BuChE) Inhibition %Inhibition” value in series [3] is 34%. Still for that read-out and setting: the figure for `Cc1ccc2nc(N3CCCCC3)c(C=NNC(=O)c3ccc(Cl)cc3Cl)cc2c1` [Compound 8i, 2,4-Dichloro-N′-((6-methyl-2-(piperidin-1-yl)quinolin-3-yl)methylene)benzohydrazide] is 39%.

Regarding `COc1ccccc1C(=O)NN=Cc1cc2cc(C)ccc2nc1N1CCCCC1` [Compound 8j, 2-Methoxy-N′-((6-methyl-2-(piperidin-1-yl)quinolin-3-yl)methylene)benzohydrazide], in series [3], the “Butyrylcholinesterase (BuChE) Inhibition %Inhibition” value came out at 30%. With `COc1cccc(C(=O)NN=Cc2cc3cc(C)ccc3nc2N2CCCCC2)c1` [Compound 8k, 3-Methoxy-N′-((6-methyl-2-(piperidin-1-yl)quinolin-3-yl)methylene)benzohydrazide], the “Butyrylcholinesterase (BuChE) Inhibition %Inhibition” value in series [3] is 28%.

Regarding `COc1ccc(C(=O)NN=Cc2cc3cc(C)ccc3nc2N2CCCCC2)cc1` [Compound 8l, 4-Methoxy-N′-((6-methyl-2-(piperidin-1-yl)quinolin-3-yl)methylene)benzohydrazide], the “Butyrylcholinesterase (BuChE) Inhibition %Inhibition” value in series [3] came to 15%.

As to `Cc1ccc2nc(N3CCCCC3)c(C=NNC(=O)c3ccccc3O)cc2c1` [Compound 8m, 2-Hydroxy-N′-((6-methyl-2-(piperidin-1-yl)quinolin-3-yl)methylene)benzohydrazide], in series [3], the “Butyrylcholinesterase (BuChE) Inhibition %Inhibition” value is recorded as 13%.

In the case of `Cc1cccc2cc(C=NNC(=O)c3ccccc3)c(N3CCCCC3)nc12` [Compound 9a, N′-((8-methyl-2-(piperidin-1-yl)quinolin-3-yl)methylene)benzohydrazide], the “Butyrylcholinesterase (BuChE) Inhibition %Inhibition” value in series [3] is 32%. Still for that read-out and setting: next, `Cc1cccc2cc(C=NNC(=O)c3cccc([N+](=O)[O-])c3)c(N3CCCCC3)nc12` [Compound 9b, N′-((8-methyl-2-(piperidin-1-yl)quinolin-3-yl)methylene)-3-nitrobenzohydrazide]: 27%; `Cc1cccc2cc(C=NNC(=O)c3ccc([N+](=O)[O-])cc3)c(N3CCCCC3)nc12` [Compound 9c, N′-((8-methyl-2-(piperidin-1-yl)quinolin-3-yl)methylene)-4-nitrobenzohydrazide]: 32%; `Cc1cccc2cc(C=NNC(=O)c3ccccc3Cl)c(N3CCCCC3)nc12` [Compound 9d, 2-Chloro-N′-((8-methyl-2-(piperidin-1-yl)quinolin-3-yl)methylene)benzohydrazide]: 38%. As to `Cc1cccc2cc(C=NNC(=O)c3cccc(Cl)c3)c(N3CCCCC3)nc12` [Compound 9e, 3-Chloro-N′-((8-methyl-2-(piperidin-1-yl)quinolin-3-yl)methylene)benzohydrazide], the “Butyrylcholinesterase (BuChE) Inhibition %Inhibition” value in series [3] was found to be 40%.

`Cc1cccc2cc(C=NNC(=O)c3ccc(Cl)cc3)c(N3CCCCC3)nc12` [Compound 9f, 4-Chloro-N′-((8-methyl-2-(piperidin-1-yl)quinolin-3-yl)methylene)benzohydrazide]: in series [3], the “Butyrylcholinesterase (BuChE) Inhibition %Inhibition” value is 36%. The same measure, in the same setting: the figure for `Cc1cccc2cc(C=NNC(=O)c3ccc(Cl)cc3Cl)c(N3CCCCC3)nc12` [Compound 9g, 2,4-Dichloro-N′-((8-methyl-2-(piperidin-1-yl)quinolin-3-yl)methylene)benzohydrazide] is 32%. The same measure, in the same setting: next, `COc1ccccc1C(=O)NN=Cc1cc2cccc(C)c2nc1N1CCCCC1` [Compound 9h, 2-Methoxy-N′-((8-methyl-2-(piperidin-1-yl)quinolin-3-yl)methylene)benzohydrazide]: 33%. On to `COc1cccc(C(=O)NN=Cc2cc3cccc(C)c3nc2N2CCCCC2)c1` [Compound 9i, 3-Methoxy-N′-((8-methyl-2-(piperidin-1-yl)quinolin-3-yl)methylene)benzohydrazide], for which, in series [3], the “Butyrylcholinesterase (BuChE) Inhibition %Inhibition” value turned out to be 27%. Besides, the “inhibition of Vero cells” value in series [2] was “less than 22%”.

Take `COc1ccc(C(=O)NN=Cc2cc3cccc(C)c3nc2N2CCCCC2)cc1` [Compound 9j, 4-Methoxy-N′-((8-methyl-2-(piperidin-1-yl)quinolin-3-yl)methylene)benzohydrazide]: in series [3], the “Butyrylcholinesterase (BuChE) Inhibition %Inhibition” value was determined as 38%.
